# Laboratory results as given in the supplement of paper PMC10307832.
# Assays:
# Assay in all cases: relative viability (nuclei count vs DMSO), 5 days (fraction); higher = more cells survive
# [1] = compound: C1CC2=C(C1)C=C(C=C2)OC3=NC(=C4C(=N3)N(C=N4)CC5=CC=C(C=C5)C6=CC=CC=C6)N[C@@H](CC7=CC=CC=C7)CO [QS11] + COc1cccc2cc(-c3nc([C@H]4CC[C@H](C(=O)O)CC4)n4ncnc(N)c34)[nH]c12 [OSI-027] (partner 0.5 µM)
# How it was run: (§1)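 The day after seeding in 1536-well plates, lung cancer cell lines were treated by pin tool with a single drug, or with a fixed anchor-drug dose together with five library-drug doses (not always all listed) in √10 steps. After 5 days, a combined fix-and-stain solution (final 0.05% Triton X-100, 1% formaldehyde, 1 ug/ml Hoechst) was added. Nuclei counted on 4× images gave relative viability as treated counts over vehicle counts, reported as the median of duplicate plates.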
# [2] = compound: C1CC2=C(C1)C=C(C=C2)OC3=NC(=C4C(=N3)N(C=N4)CC5=CC=C(C=C5)C6=CC=CC=C6)N[C@@H](CC7=CC=CC=C7)CO [QS11] + Nc1ncn([C@H]2C[C@H](O)[C@@H](CO)O2)c(=O)n1 [Decitabine] (partner 2 µM)
# How it was run: as §1
# [3] = compound: CC1=C(C=C(C=C1)NC(=O)C2=CC(=CC=C2)C(C)(C)C#N)NC3=CC4=C(C=C3)N=CN(C4=O)C [AZ628] + NC(=O)Nc1cc(-c2cccc(F)c2)sc1C(=O)N[C@H]1CCCNC1 [AZD7762] (partner 0.2 µM)
# How it was run: as §1
# [4] = compound: CC1=C(C=C(C=C1)NC(=O)C2=CC(=CC=C2)C(C)(C)C#N)NC3=CC4=C(C=C3)N=CN(C4=O)C [AZ628] + CC1(C)CCC(c2ccc(Cl)cc2)=C(CN2CCN(c3ccc(C(=O)NS(=O)(=O)c4ccc(N[C@H](CCN5CCOCC5)CSc5ccccc5)c(S(=O)(=O)C(F)(F)F)c4)cc3)CC2)C1 [Navitoclax] (partner 0.5 µM)
# How it was run: as §1
Cell Line,relative viability ([1]; first compound 0.08 µM),relative viability ([1]; first compound 0.253 µM),relative viability ([1]; first compound 0.8 µM),relative viability ([1]; first compound 2.53 µM),relative viability ([1]; first compound 8 µM),relative viability ([2]; first compound 0.08 µM),relative viability ([2]; first compound 0.253 µM),relative viability ([2]; first compound 0.8 µM),relative viability ([2]; first compound 2.53 µM),relative viability ([2]; first compound 8 µM),relative viability ([3]; first compound 0.08 µM),relative viability ([3]; first compound 0.253 µM),relative viability ([3]; first compound 0.8 µM),relative viability ([3]; first compound 2.53 µM),relative viability ([3]; first compound 8 µM),relative viability ([4]; first compound 0.08 µM),relative viability ([4]; first compound 0.253 µM),relative viability ([4]; first compound 0.8 µM),relative viability ([4]; first compound 2.53 µM),relative viability ([4]; first compound 8 µM)
NCI-H1395,0.603,0.718,0.626,0.735,0.637,0.699,0.791,0.71,0.789,0.801,0.431,0.421,0.381,0.372,0.358,1.2,1.08,1.1,1.05,1.22
NCI-H1437,0.95,0.946,0.77,0.834,0.827,0.557,0.649,0.432,0.585,0.531,1.17,1.07,0.657,1.13,0.898,1.09,1.09,1.19,1.25,1.07
NCI-H1651,0.618,0.645,0.733,0.625,0.662,0.591,0.641,0.54,0.566,0.578,0.466,0.393,0.44,0.448,0.318,1.07,1.02,1.2,1.25,1.1
NCI-H1666,0.856,0.696,0.667,0.604,0.606,0.746,0.748,0.653,0.699,0.485,0.837,0.742,0.645,0.737,0.651,0.865,0.771,0.728,0.772,0.513
